Reference: patent US12565489B2, “Heterocyclyl pyrimidines and triazines as novel fungicides” (Bayer Aktiengesellschaft, priority 2020, dated 2026)
Like-named read-outs stand apart in the source and are kept apart here.

Assay: Measurement of Log P values by HPLC on reversed phase columns (EEC directive 79/831 Annex V.A8)
Assay type: physicochemical
Method: Measurement of Log P values as provided herein was performed according to EEC directive 79/831 Annex V.A8 by HPLC (High Performance Liquid Chromatography) on reversed phase columns with the following methods: • ^[a] Log P value is determined by measurement of LC-UV, in an acidic range, with 0.1% formic acid in water and acetonitrile as eluent (linear gradient from 10% acetonitrile to 95% acetonitrile). • ^[b] Log P value is determined by measurement of LC-UV, in a neutral range, with 0.001 molar ammonium acetate solution in water and acetonitrile as eluent (linear gradient from 10% acetonitrile to 95% acetonitrile). • ^[c] Log P value is determined by measurement of LC-UV, in an acidic range, with 0.1% phosphoric acid and acetonitrile as eluent (linear gradient from 10% acetonitrile to 95% acetonitrile).
If more than one Log P value is available within the same method, all the values are given and separated by “+”.
Calibration was done with straight-chain alkan2-ones (with 3 to 16 carbon atoms) with known Log P values (measurement of Log P values using retention times with linear interpolation between successive alkanones). Lambda-max-values were determined using UV-spectra from 200 nm to 400 nm and the peak values of the chromatographic signals

[1] = method [a]: LC-UV, acidic range, 0.1% formic acid in water and acetonitrile as eluent, read-out: LogP

`Cc1ncc(Oc2cccc(C(F)(F)F)c2)c(C(=O)N[C@@H](CCl)Cc2ccc(Br)cc2C)n1` (racemic) [Compound 10-06] gave a chromatographic logP (LogP) of 4.86.
For `COC(=N)c1nc(C)ncc1Oc1cccc(Cl)c1` [Compound 20-01, methyl 5-(3-chlorophenoxy)-2-methyl-pyrimidine-4-carboximidate], the chromatographic logP (LogP) was 2.19.
For `Cc1ncc(Oc2cccc(C(F)(F)F)c2)c(C(=NO)N[C@@H](CCl)Cc2ccc(C(F)F)cc2Cl)n1` (racemic) [Compound 11-11], the chromatographic logP (LogP) was 4.02.
For `Cc1ncc(Oc2cccc(Cl)c2)c(C(N)=NOCC(=O)c2ccc3c(c2)CCC3)n1` [Compound 19-01], the chromatographic logP (LogP) was 4.15.
In the case of `N[C@H](CCl)Cc1csc(C(F)(F)F)c1` (racemic) [Compound 9-03], the chromatographic logP [1] was 1.29.
With `Cc1ncc(Oc2cccc(Cl)c2)c(C(N)=NOCC(=O)c2ccc3c(c2)OCCO3)n1` [Compound 19-02] the chromatographic logP (LogP) was 3.12.
With `C#Cc1cccc(Oc2cnc(C)nc2C(=O)O)c1` [Compound 1-05] the chromatographic logP (LogP) was 1.77.
For `Cc1ncc(Oc2cccc(C(F)(F)F)c2)c(C(=NO)N[C@@H](CCl)Cc2ccc(OC(F)F)cc2Cl)n1` (racemic) [Compound 11-09], the chromatographic logP (LogP) was 4.08.
Compound `Cc1ncc(Oc2cccc(Cl)c2)c(C(=O)O)n1` [Compound 1-03] has a chromatographic logP (LogP) of 2.
`CSc1ncc(Br)c(C(=O)N[C@@H](CON2C(=O)c3ccccc3C2=O)Cc2ccc(C)cc2Cl)n1` (racemic) [Compound 3-03] showed a chromatographic logP (LogP) of 4.62.
`CSc1ncc(Br)c(C2=NOC[C@@H](Cc3ccc(C)cc3C)N2)n1` (racemic) [Compound 7-02] gave a chromatographic logP (LogP) of 4.05.
With `Cc1ccc([C@H](N)CC(N)=O)c(C)c1` (racemic) [Compound 9-05] the chromatographic logP (LogP) was 0.55.
In the case of `Cc1ccc(C[C@H](CCl)NC(=O)c2nc(C)ncc2Oc2cccc(C3CC3)c2F)c(Cl)c1` (racemic) [Compound 10-03], the chromatographic logP (LogP) was 4.93.
Compound `Cc1ncc(Oc2cccc(C(F)(F)F)c2)c(C(=NO)N[C@@H](CCl)Cc2csc(C(F)(F)F)c2)n1` (racemic) [Compound 11-08] has a chromatographic logP (LogP) of 4.12.
Compound `C=Cc1cccc(Oc2cnc(C)nc2C(=O)O)c1` [Compound 1-06] has a chromatographic logP (LogP) of 1.87.
Compound `Cc1ccc(C[C@H](N)CC(N)=O)c(C)c1` (racemic) [Compound 9-04] has a chromatographic logP (LogP) of 0.69.
`Cc1ncc(Oc2cccc(Cl)c2)c(C(N)=NO)n1` [Compound 17-01, 5-(3-chlorophenoxy)-N′-hydroxy-2-methyl-pyrimidine-4-carboxamidine] showed a chromatographic logP (LogP) of 1.66.
In the case of `Cc1ccc(C[C@H](CCl)NC(=O)c2nc(C)ncc2Oc2cccc(C(F)(F)F)c2)c(Cl)c1` (racemic) [Compound 10-02], the chromatographic logP (LogP) was 4.74.
With `CSc1ncc(Br)c(C2=NOC[C@@H](Cc3ccc(C)cc3Cl)N2)n1` (racemic) [Compound 7-03] the chromatographic logP (LogP) was 4.08.
`Cc1ncc(Oc2cccc(C(F)(F)F)c2)c(C(=O)N[C@@H](CCl)Cc2csc(C(F)(F)F)c2)n1` (racemic) [Compound 10-07] gave a chromatographic logP (LogP) of 4.55.
In the case of `CSc1ncc(Br)c(C(=O)N[C@@H](CON)Cc2ccc(C)cc2C)n1` (racemic) [Compound 6b-01], the chromatographic logP (LogP) was 2.49.
Work on `Cc1ncc(Oc2cccc(Cl)c2)c(C(N)=NOC(C)(C)C(=O)c2ccc(F)cc2F)n1` [Compound 19-03] yielded a chromatographic logP (LogP) of 3.41.
`Cc1ccc(CC(CCl)NC(=O)c2nc(C)ncc2Br)c(C)c1` (racemic) [Compound 12-01, 5-bromo-N-[(2RS)-1-chloro-3-(2,4-dimethylphenyl)propan-2-yl]-2-methyl-pyrimidine-4-carboxamide] showed a chromatographic logP (LogP) of 3.66.
Compound `Cc1ccc(C[C@H](CCl)NC(=NO)c2nc(C)ncc2Oc2cccc(C(F)(F)F)c2)c(Cl)c1` (racemic) [Compound 11-02] has a chromatographic logP (LogP) of 4.31.
In the case of `Cc1ccc(CC2CCN=C(c3nc(C)ncc3Oc3cccc(Cl)c3)N2)c(C)c1` (racemic) [Compound I-022, 5-(3-chlorophenoxy)-2-methyl-4-[(6RS)-6-[(2,4-dimethylphenyl)methyl]-1,4,5,6-tetrahydropyrimidin-2-yl]pyrimidine], the chromatographic logP (LogP) was 2.59.
`Cc1ccc(CC(CCl)NC(=NO)c2nc(C)ncc2Br)c(C)c1` (racemic) [Compound 13-01, 5-bromo-N-[(2RS)-1-chloro-3-(2,4-dimethylphenyl)propan-2-yl]-N′-hydroxy-2-methylpyrimidine-4-carboximidamide] showed a chromatographic logP (LogP) of 3.26.
Compound `Cc1ccc(CC(CON)NC(=O)c2nc(C3CC3)ncc2Oc2cccc(C(F)(F)F)c2)c(C)c1` (racemic) [Compound 4-01, N-[(2RS)-1-(aminooxy)-3-(2,4-dimethylphenyl)propan-2-yl]-2-cyclopropyl-5-[3-(trifluoromethyl)phenoxy]pyrimidine-4-carboxamide] has a chromatographic logP (LogP) of 3.7.
Work on `N[C@H](CCl)Cc1ccc(SC(F)(F)F)cc1` (racemic) [Compound 9-02] yielded a chromatographic logP [1] of 1.68.
Compound `CSc1ncc(Br)c(C(=O)N[C@@H](CON2C(=O)c3ccccc3C2=O)Cc2ccc(C)cc2C)n1` (racemic) [Compound 6a-01] has a chromatographic logP (LogP) of 4.55.
`Cc1ccc(C[C@H](N)CCN)c(C)c1` (racemic) [Compound 9-06] gave a chromatographic logP (LogP) of 0.23.
For `Cc1ncc(Oc2cccc(Cl)c2)c(C(N)=NO[C@H](F)C(=O)c2ccc(Cl)cc2)n1` (racemic) [Compound 19-04], the chromatographic logP (LogP) was 3.4.
In the case of `Cc1ccc(C[C@H](CCl)NC(=O)c2nc(C)ncc2Oc2cccc(Cl)c2)c(Cl)c1` (racemic) [Compound 10-04], the chromatographic logP (LogP) was 4.61.
`Cc1ncc(Oc2cccc(C(F)(F)F)c2)c(C(=O)N[C@@H](CCl)Cc2ccc(C(F)F)cc2Cl)n1` (racemic) [Compound 10-10] showed a chromatographic logP (LogP) of 4.37.
Work on `O=C(O)c1nc(C2CC2)ncc1Oc1cccc(C(F)(F)F)c1` [Compound 1-02, 2-cyclopropyl-5-[3-(trifluoromethyl)phenoxy]pyrimidine-4-carboxylic acid] yielded a chromatographic logP (LogP) of 2.49.
Work on `COc1ccc(C[C@H](CCl)NC(=O)c2nc(C)ncc2Oc2cccc(C(F)(F)F)c2)c(Cl)c1` (racemic) [Compound 10-01] yielded a chromatographic logP (LogP) of 4.47.
`Cc1ccc(C[C@H](CCl)NC(=NO)c2nc(C)ncc2Oc2cccc(C3CC3)c2F)c(Cl)c1` (racemic) [Compound 11-03] gave a chromatographic logP (LogP) of 4.62.
Work on `Cc1ccc(C[C@H](CCl)NC(=NO)c2nc(C)ncc2Oc2cccc(C3CC3)c2F)c(C)c1` (racemic) [Compound 11-04] yielded a chromatographic logP (LogP) of 4.51.
`Cc1ccc(CC2CON=C(c3nc(C)ncc3Br)N2)c(C)c1` (racemic) [Compound 7-01, (5RS)-3-(5-bromo-2-methylpyrimidin-4-yl)-5-(2,4-dimethylbenzyl)-5,6-dihydro-4H-1,2,4-oxadiazine] gave a chromatographic logP (LogP) of 3.05.
With `Cc1ncc(Oc2cccc(Br)c2)c(C(=O)O)n1` [Compound 1-04] the chromatographic logP (LogP) was 2.15.
`Cc1ccc(C[C@H](N)CON2C(=O)c3ccccc3C2=O)c(C)c1` (racemic) [Compound 2-01] gave a chromatographic logP (reversed phase HPLC column, method [a]: LC-UV, acidic range, 0.1% formic acid in water and acetonitrile as eluent, read-out: LogP) of 1.55.
With `Cc1ccc(C[C@H](CCl)NC(=NO)c2nc(C)ncc2Oc2cccc(Cl)c2F)c(Cl)c1` (racemic) [Compound 11-06] the chromatographic logP (LogP) was 4.16.
`Cc1ncc(Oc2cccc(C(F)(F)F)c2)c(C(=O)N[C@@H](CCl)Cc2ccc(SC(F)(F)F)cc2)n1` (racemic) [Compound 10-09] gave a chromatographic logP (LogP) of 4.92.
`Cc1ncc(Oc2cccc(C(F)(F)F)c2)c(C(=NO)N[C@@H](CCl)Cc2ccc(SC(F)(F)F)cc2)n1` (racemic) [Compound 11-10] gave a chromatographic logP (LogP) of 4.66.
`Cc1ccc(CC(CON2C(=O)c3ccccc3C2=O)NC(=O)c2nc(C3CC3)ncc2Oc2cccc(C(F)(F)F)c2)c(C)c1` (racemic) [Compound 3-01, 2-cyclopropyl-N-{(2RS)-1-(2,4-dimethylphenyl)-3-[(1,3-dioxo-1,3-dihydro-2H-isoindol-2-yl)oxy]propan-2-yl}-5-[3-(trifluoromethyl)phenoxy]pyrimidine-4-carboxamide] showed a chromatographic logP (LogP) of 5.4.
`Cc1ccc(C[C@H](CCl)NC(=O)c2nc(C)ncc2Oc2cccc(C3CC3)c2F)c(C)c1` (racemic) [Compound 10-11] gave a chromatographic logP (LogP) of 4.86.
`C#Cc1cccc(Oc2cnc(C)nc2C(=O)N[C@@H](CON2C(=O)c3ccccc3C2=O)Cc2ccc(C)cc2C)c1` (racemic) [Compound 3-02] showed a chromatographic logP (LogP) of 4.41.
`Cc1ccc(C[C@H](CCl)NC(=NO)c2nc(C)ncc2Oc2cccc(Cl)c2)c(Cl)c1` (racemic) [Compound 11-05] showed a chromatographic logP (LogP) of 4.28.
Compound `CSc1ncc(Br)c(C(=O)N[C@@H](CON)Cc2ccc(C)cc2Cl)n1` (racemic) [Compound 4-03] has a chromatographic logP (LogP) of 2.58.
Work on `Cc1ncc(Oc2cccc(Cl)c2)c(C2=NOC(C)(C)[C@@H](c3ccc(F)cc3F)N2)n1` (racemic) [Compound I-035] yielded a chromatographic logP (LogP) of 3.84.
`Cc1ncc(Oc2cccc(C3CC3)c2F)c(C(=O)O)n1` [Compound 1-07] showed a chromatographic logP (LogP) of 2.2.
In the case of `Cc1ncc(Oc2cccc(C(F)(F)F)c2)c(C(=O)N[C@@H](CCl)Cc2ccc(OC(F)F)cc2Cl)n1` (racemic) [Compound 10-08], the chromatographic logP (LogP) was 4.51.
For `COc1ccc(C[C@H](CCl)NC(=NO)c2nc(C)ncc2Oc2cccc(C(F)(F)F)c2)c(Cl)c1` (racemic) [Compound 11-01], the chromatographic logP (LogP) was 4.01.
